Test results published in patent US20160162632A1, “METHOD OF SCREENING REACTIONS OR BIOLOGICAL PATHWAYS INDUCED BY COMPOUND” (Samsung Electronics Co., Ltd., priority 2014, published 2016).

Tested on: biochemical pathways with which genes with a change in expression level are associated
Assay: Selection among predicted reactions using differentially expressed genes (DEGs) by dapsone and DAVID pathway annotation
Format: cell-based
Conditions: reaction included in the "arginine and prolyl metabolism" pathway from DEGs; FIG. 7
Excerpt: Genes that are differentially expressed (differentially expressed genes, DEGs) by dapsone were experimentally determined. Information about biochemical pathways to which the DEGs are involved was obtained by a functional annotation tool of bioinformatics resources (DAVID Bioinformatics Resources version 6.7 operated by the National Institute of Allergy and Infectious Diseases ([…]), Bethesda, Md.; see Huang D W, Sherman B T, Lempicki R A. “Systematic and integrative analysis of large gene lists using DAVID Bioinformatics Resources,” Nature Protoc. 2009; 4(1):44-57; Huang D W, Sherman B T, Lempicki R A. “Bioinformatics enrichment tools: paths toward the comprehensive functional analysis of large gene lists,” Nucleic Acids Res. 2009; 37(1):1-13).
The term “Term” refers to a pathway related to a gene list. The terms “Genes” and “Count” denotes the numbers of genes included in the corresponding terms. The length of the square in the column for “Genes” indicates the number of genes included in the corresponding terms. % refers to a ratio of genes included in the corresponding terms to genes input as DEGs of dapson. These pathways were identified in terms of whether each of the predicted reaction as described in Example 2.1. is included therein.

Nc1ccc(S(=O)(=O)c2ccc(N)cc2)cc1 [dapsone, 4,4′-diaminodiphenylsulfone]
enzyme reaction determined as induced in a cell by treatment: ATP:creatine N-phosphotransferase reaction
